From patent EP1171440B1, “SUBSTITUTED-3-CYANO-[1.7],[1.5], AND [1.8]-NAPHTHYRIDINE INHIBITORS OF TYROSINE KINASES” (Wyeth Holdings Corporation, priority 1999, dated 2000)
pIC50: −log10 of the molar value. Converted amounts (≈) assume the structure as drawn.

Key:
SW620 = experiment: Inhibition of Cancer Cell Growth as Measured by Cell Number (Sulforhodamine B); format: cell-based, Human; settings: Homo sapiens, SW-620, 48 hours exposure, read-out: IC50
Experimental: (§1) After 48 hours exposure to test compounds, cells were fixed with trichloroacetic acid, and stained with Sulforhodamine B. After washing with trichloroacetic acid, bound dye was solubilized in 10 mM Tris base and optical density was determined using a plate reader. Under conditions of the assay the optical density is proportional to the number of cells in the well. […] The test procedure is described in details by Philip Skehan et. al, J.Natl. Canc. […] The Her2Neu cell line is a 3T3 line that has bbeen transfected with Her2 receptor kinase.

LOX = experiment: as above; format: cell-based, Human; settings: Homo sapiens, 48 hours exposure, read-out: IC50
Experimental: as §1

SKBR3 = experiment: as above; format: cell-based, Human; settings: Homo sapiens, SK-BR-3, 48 hours exposure, read-out: IC50
Experimental: as §1

A431 = experiment: as above; format: cell-based, Human; settings: Homo sapiens, A-431, 48 h, 48 hours exposure, read-out: IC50
Experimental: as §1

A2780DDP = experiment: as above; format: cell-based, Human; settings: Homo sapiens, 48 h, 48 hours exposure, read-out: IC50
Experimental: as §1

A2780S = experiment: as above; format: cell-based, Human; settings: Homo sapiens, 48 h, 48 hours exposure, read-out: IC50
Experimental: as §1

MDA435 = experiment: as above; format: cell-based, Human; settings: Homo sapiens, MDA435, 48 h, 48 hours exposure, read-out: IC50
Experimental: as §1

[1] = target: T1, EGF-R Kinase (recombinant enzyme) (Homo sapiens, UniProt P00533); experiment: Inhibition of Epidermal Growth Factor Receptor Kinase (EGF-R) using recombinant enzyme, RR-SRC peptide phosphorylation with 33P-ATP; format: biochemical; settings: for pIC50: recombinant His-tagged cytoplasmic domain of EGFR, RR-SRC peptide, 90 min at room temperature, read-out: IC50
T1 construct: containing the EGFR cDNA encoding amino acids 645 - 1186 preceded by Met-Ala-(His)6; made in house; host or cells: Sf9 insect cells infected with recombinant baculovirus vHcEGFR52
Experimental: Representative test compounds were evaluated for their ability to inhibit the phosphorylation of the tyrosine residue of a peptide substrate catalyzed by the enzyme epidermal growth factor receptor kinase. […] The enzyme used in this assay is the His-tagged cytoplasmic domain of EGFR. A recombinant baculovirus (vHcEGFR52) was constructed containing the EGFR cDNA encoding amino acids 645 - 1186 preceded by Met-Ala-(His)6 . Sf9 cells in 100 mm plates were infected at an moi of 10 pfu/cell and cells were harvested 48 h post infection. A cytoplasmic extract was prepared using 1% Triton X-100 and applied to Ni-NTA column. After washing the column with 20 mM imidazole, HcEGFR was eluted with 250 mM imidazole (in 50 mM Na2HPO4, pH 8.0, 300 mM NaCl). Fractions collected were dialyzed against 10 mM HEPES, pH 7.0, 50 mM NaCl, 10% glycerol, 1ug/mL antipain and leupeptin and 0.1 mM Pefabloc SC. The protein was frozen in dry ice/methanol and stored -70° C.
Test compounds were made into 10 mg/mL stock solutions in 100% dimethylsulfoxide (DMSO). Prior to experiment, stock solutions were diluted to 500 uM with 100% DMSO and then serially diluted to the desired concentration with HEPES buffer (30 mM HEPES pH 7.4).
For the enzyme reaction, 10 uL of each inhibitor (at various concentrations) were added to each well of a 96-well plate. To this was added 3 uL of enzyme (1:10 dilution in 10mM HEPES, pH 7.4 for final conc. of 1:120). This was allowed to sit for 10 min on ice and was followed by the addition of 5 ul peptide (80 uM final conc.), 10ul of 4X Buffer (Table A), 0.25 uL ^33P-ATP and 12 uL H2O. The reaction was allowed to run for 90 min at room temperature and was followed by spotting the entire volume on to precut P81 filter papers. The filter discs were washed 2X with 0.5% phosphoric acid and radioactivity was measured using a liquid scintillation counter. Table A
The IC50 is the concentration of test compound needed to reduce the total amount of phosphorylated substrate by 50%. The % inhibition of the test compound was determined for at least three different concentrations and the IC50 value was evaluated from the dose response curve. […] CPM(control) is in units of counts per minute and was a number expressing the amount of radiolabeled ATP (γ-^33P) incorporated into the RR-SRC peptide substrate by the enzyme after 90 minutes at room temperature in the absence of test compound as measured by liquid scintillation counting. The CPM values were corrected for the background counts produced by ATP in the absence of the enzymatic reaction. Where it was possible to determine an IC50 value, this is reported in TABLE 1 otherwise the % inhibition at 0.5 µM concentration of test compound is shown in TABLE 1.

MCF7 = experiment: Inhibition of Cancer Cell Growth as Measured by Cell Number (Sulforhodamine B); format: cell-based; settings: Homo sapiens, 48 hours exposure
Experimental: (§2) Human tumor cell lines were plated in 96-well plates (250 µl/well, 1-6 x 10^4 cells/ml) in RPMI 1640 medium, containing 5% FBS (Fetal Bovine Serum). […] After 48 hours exposure to test compounds, cells were fixed with trichloroacetic acid, and stained with Sulforhodamine B. After washing with trichloroacetic acid, bound dye was solubilized in 10 mM Tris base and optical density was determined using a plate reader. Under conditions of the assay the optical density is proportional to the number of cells in the well. IC50s (concentrations causing 50% inhibition of cell growth) were determined from the growth inhibition plots. The test procedure is described in details by Philip Skehan et. al, J.Natl. Canc. Inst., 82, 1107-1112 (1990). […] Information about some of the cell lines used in these test procedures is available from the American […]: Cell Lines and Hybridomas, 1994 Reference Guide, 8th Edition. The Her2Neu cell line is a 3T3 line that has bbeen transfected with Her2 receptor kinase.

[2] = target: T2, KDR; the catalytic domain of the VEGF receptor (Homo sapiens, UniProt P35968); experiment: Inhibition of Kinase insert Domain containing Receptor (KDR), radioactive substrate phosphorylation; format: biochemical; settings: pH 7.2; substrate copolymer of glutamic acid and tyrosine, E:Y = 4:1
T2 construct: KDR; the catalytic domain of the VEGF receptor
Experimental: In this standard pharmacological test procedure, KDR protein is mixed, in the presence or absence of an inhibitor compound, with a substrate peptide to be phosphorylated (a copolymer of glutamic acid and tyrosine, E:Y = 4:1) and other cofactors such as Mg^++ and sodium vanadate (a protein tyrosine phosphatase inhibitor) in an appropriate buffer to maintain pH (7.2). ATP and a radioactive tracer (either P^32- or P^33- labeled ATP) is then add to initiate phosphorylation. After incubation, the radioactive phosphate associated with the acid-insoluble fraction of the assay mixture is then quantified as reflection of substrate phosphorylation. This radioactive format was used to identify inhibitors of KDR tyrosine kinase activity where the IC50 is the concentration of drug that inhibits substrate phosphorylation by 50%.

3T3 = experiment: Inhibition of Cancer Cell Growth as Measured by Cell Number (Sulforhodamine B); format: cell-based; settings: Mus musculus, NIH3T3, 48 hours exposure, read-out: IC50
Experimental: as §2

Her2Neu = experiment: as above; format: cell-based; settings: Her2Neu (3T3 line transfected with Her2 receptor kinase); 48 hours exposure
Experimental: as §2

T1 sequence (P00533 669-1210): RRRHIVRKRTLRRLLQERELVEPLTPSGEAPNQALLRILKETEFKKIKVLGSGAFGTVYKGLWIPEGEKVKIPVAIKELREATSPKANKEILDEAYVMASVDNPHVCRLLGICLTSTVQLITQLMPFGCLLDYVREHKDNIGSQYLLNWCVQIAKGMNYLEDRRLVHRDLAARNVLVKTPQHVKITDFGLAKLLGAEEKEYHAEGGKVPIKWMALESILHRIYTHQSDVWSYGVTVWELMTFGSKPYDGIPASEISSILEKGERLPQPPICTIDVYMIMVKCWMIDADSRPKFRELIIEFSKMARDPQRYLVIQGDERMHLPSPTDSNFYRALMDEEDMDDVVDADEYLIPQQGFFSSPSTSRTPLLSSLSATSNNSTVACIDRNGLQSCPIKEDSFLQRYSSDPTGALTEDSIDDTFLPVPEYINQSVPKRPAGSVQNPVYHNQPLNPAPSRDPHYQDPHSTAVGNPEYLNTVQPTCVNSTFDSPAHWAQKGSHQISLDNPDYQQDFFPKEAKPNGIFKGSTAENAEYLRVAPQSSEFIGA
T2 sequence (P35968 834-1162 limits assumed): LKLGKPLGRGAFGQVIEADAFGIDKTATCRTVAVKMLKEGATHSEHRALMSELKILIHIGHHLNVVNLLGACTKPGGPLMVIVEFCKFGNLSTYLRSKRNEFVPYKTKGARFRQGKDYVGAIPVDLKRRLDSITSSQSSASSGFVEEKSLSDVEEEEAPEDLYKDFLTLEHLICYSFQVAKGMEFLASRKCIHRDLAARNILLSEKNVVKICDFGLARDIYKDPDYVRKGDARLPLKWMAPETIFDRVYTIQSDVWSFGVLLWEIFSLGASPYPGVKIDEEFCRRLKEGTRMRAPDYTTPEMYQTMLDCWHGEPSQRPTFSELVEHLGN

| Structure (SMILES) | IC50 (SW620) | IC50 (LOX) | IC50 (SKBR3) | IC50 (A431) | IC50 (A2780DDP) | IC50 (A2780S) | IC50 (MDA435) | pIC50 [1] | IC50 (MCF7) | IC50 [2] | inhibition at 0.5 µM ([1]; 0.5 µM concentration of test compound, read-out: % Inhibition @ 0.5) | IC50 (3T3) | IC50 (Her2Neu) |
| --- | --- | --- | --- | --- | --- | --- | --- | --- | --- | --- | --- | --- | --- |
| CC#CC(=O)Nc1cc2c(Nc3cccc(Br)c3)c(C#N)cnc2cn1 [Example 61, But-2-ynoic acid, [4-(3-bromo-phenylamino)-3-cyano-[1.7]-naphthyridin-6-yl]-amide] | 0.17 µg/mL (≈ 0.418 µM) | 0.07 µg/mL (≈ 0.172 µM) | 0.12 µg/mL (≈ 0.295 µM) | 0.23 µg/mL (≈ 0.566 µM) | 0.13 µg/mL (≈ 0.32 µM) | 0.06 µg/mL (≈ 0.148 µM) | 0.88 µg/mL (≈ 2.17 µM) | 7.70 | 0.4 µg/mL (≈ 0.985 µM) |  |  |  |  |
| Cc1ccc(Nc2c(C#N)cnc3cnc(F)cc23)cc1O [Example 66, 6-Fluoro-4-(3-hydroxy-4-methyl-phenylamino)-[1.7]naphthyridine-3-carbonitrile] |  |  |  |  |  |  |  |  |  | 33.9 µg/mL (≈ 115 µM) |  |  |  |
| CN(C)CCOc1cc2c(Nc3ccc(F)c(Cl)c3)c(C#N)cnc2cn1 [Example 74, 4-(3-Chloro-4-fluoro-phenylamino)-6-(2-dimethylamino-ethoxy)-[1.7]naphthyridine-3-carbonitrile] | > 5 µg/mL |  | 4.63 µg/mL (≈ 12 µM) | 2.23 µg/mL (≈ 5.77 µM) |  |  | > 5 µg/mL | 6.00 |  |  | 31.3% | 4.48 µg/mL (≈ 11.6 µM) | > 5 µg/mL |
